In publication PMC11204923, “Marine Cytotoxin Santacruzamate A Derivatives as Potent HDAC1-3 Inhibitors and Their Synergistic Anti-Leukemia Effects with Venetoclax” (Marine Drugs, 2024):

Legend:
MV4-11 cells [1] = assay: Cell viability assay (resazurin), MV4-11; format: cell-based; details: Homo sapiens, MV4-11, 72 h; read-out: IC50 anti-proliferative activity MV4-11
Protocol: (§1) The AML cell lines MV4-11, THP-1, KASUMI-1 and HL-60 were purchased from Procell Life Science & Technology Co., Ltd. (Wuhan, China). THP-1 and KASUMI-1 were cultured in RPMI-1640 complete medium containing 10% fetal bovine serum and 1% penicillin and streptomycin. MV4-11 was cultured in IMDM complete medium containing 10% fetal bovine serum and 1% penicillin and streptomycin. HL-60 was cultured in IMDM complete medium containing 20% fetal bovine serum and 1% penicillin and streptomycin. All cell lines were cultured in an incubator with humidity set at 95%, temperature at 37 °C and 5% CO2.
(§2) MV4-11, THP-1, KASUMI-1 and HL-60 cells were plated in 96-well transparent plates (10,000 to 15,000 cells/100 μL) and after incubation overnight, cells were treated with gradient-diluted inhibitors with several concentrations. After the cells were incubated with inhibitors for 72 h, 1 mg/mL of Resazurin (Sigma-Aldrich, Saint Louis, MO, USA) was added (working concentration was 0.1 mg/mL). After incubation at 37 °C for about 3 h, the fluorescence intensity of […] was measured at 560 nm/590 nm (excitation/emission) with a Spectra Max i3 Microplate Reader, and the cell viability was determined. The IC50 curve was drawn using GraphPad Prism 9.5 software.

HDAC3 = target: T1, HDAC3 (Homo sapiens, UniProt O15379); assay: In vitro HDAC inhibition fluorescence assay, HDAC3; format: biochemical; details: for inhibition at 0.01 µM: 10 nM; for inhibition at 0.01 µM / inhibition at 0.1 µM: read-out: Inhibition Rate of HDAC3 (%); for inhibition at 0.1 µM: 100 nM
T1 construct: purchased BPS Bioscience
T1 sequence (O15379 whole entry): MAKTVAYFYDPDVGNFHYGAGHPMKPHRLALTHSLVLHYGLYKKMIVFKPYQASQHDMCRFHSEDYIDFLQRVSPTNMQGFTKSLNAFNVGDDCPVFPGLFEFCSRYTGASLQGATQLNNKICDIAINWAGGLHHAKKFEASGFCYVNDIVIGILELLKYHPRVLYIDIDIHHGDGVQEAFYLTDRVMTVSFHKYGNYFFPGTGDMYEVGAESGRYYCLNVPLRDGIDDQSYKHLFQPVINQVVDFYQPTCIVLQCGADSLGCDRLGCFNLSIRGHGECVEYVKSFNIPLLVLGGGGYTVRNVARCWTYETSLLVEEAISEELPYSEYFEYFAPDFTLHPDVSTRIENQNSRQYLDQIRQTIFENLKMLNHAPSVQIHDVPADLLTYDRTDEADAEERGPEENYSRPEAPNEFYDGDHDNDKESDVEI
T1 sequence (Q9Y618 395-489 partner limits assumed): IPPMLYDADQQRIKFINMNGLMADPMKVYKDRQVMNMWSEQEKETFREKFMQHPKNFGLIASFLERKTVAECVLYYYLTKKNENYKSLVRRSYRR
Protocol: (§3) All of the HDAC enzymes were purchased from BPS Bioscience. In vitro HDAC inhibition assays were conducted as previously described. In brief, 20 μL of recombinant HDAC enzyme solution (HDAC1-9, 11) was mixed with various concentrations of the tested compound (20 μL). […] After incubation at 37 °C for 2 h, the catalysis was stopped by the addition of 10 μL of developer containing 30 mg/mL trypsin and 6 μM trichostatin A (TSA). Then, 30 min later, the fluorescence intensity was measured using a microplate reader at excitation and emission wavelengths of 360 and 460 nm, respectively. The inhibition ratios were calculated from the fluorescence intensity readings of tested wells relative to those of control wells, and the IC50 curves and values were determined by GraphPad Prism 6.0, using the “log(inhibitor) vs. normalized response-variable slope” function.

Kasumi-1 cells = assay: Cell viability assay (resazurin), Kasumi-1; format: cell-based; details: Homo sapiens, Kasumi 1, 72 h; read-out: IC50 anti-proliferative activity Kasumi-1
Protocol: as §1, §2

HDAC2 = target: T2, HDAC2 (Homo sapiens, UniProt Q92769); assay: In vitro HDAC inhibition fluorescence assay, HDAC2; format: biochemical
T2 construct: purchased BPS Bioscience
T2 sequence (Q92769 whole entry): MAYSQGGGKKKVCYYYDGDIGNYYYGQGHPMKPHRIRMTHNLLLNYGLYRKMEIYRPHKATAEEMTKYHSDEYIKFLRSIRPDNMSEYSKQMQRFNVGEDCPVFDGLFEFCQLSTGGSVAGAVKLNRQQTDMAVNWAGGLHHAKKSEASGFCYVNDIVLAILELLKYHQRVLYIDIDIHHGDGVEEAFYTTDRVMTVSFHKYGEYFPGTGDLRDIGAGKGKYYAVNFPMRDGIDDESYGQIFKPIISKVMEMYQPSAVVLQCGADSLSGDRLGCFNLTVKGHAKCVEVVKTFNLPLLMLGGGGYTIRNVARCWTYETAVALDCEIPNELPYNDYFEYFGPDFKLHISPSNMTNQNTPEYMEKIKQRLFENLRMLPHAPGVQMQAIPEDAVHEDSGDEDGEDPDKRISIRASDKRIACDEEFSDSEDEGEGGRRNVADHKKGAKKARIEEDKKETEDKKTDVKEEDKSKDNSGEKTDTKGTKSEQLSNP
Protocol: as §3

HL-60 cells = assay: Cell viability assay (resazurin), HL-60; format: cell-based; details: Homo sapiens, HL-60, 72 h; read-out: IC50 anti-proliferative activity HL-60
Protocol: as §1, §2

HDAC1 = target: T3, HDAC1 (Homo sapiens, UniProt Q13547); assay: In vitro HDAC inhibition fluorescence assay, HDAC1; format: biochemical; details: for inhibition at 0.01 µM: 10 nM; for inhibition at 0.01 µM / inhibition at 0.1 µM: read-out: Inhibition Rate of HDAC1 (%); for inhibition at 0.1 µM: 100 nM
T3 construct: purchased BPS Bioscience
T3 sequence (Q13547 whole entry): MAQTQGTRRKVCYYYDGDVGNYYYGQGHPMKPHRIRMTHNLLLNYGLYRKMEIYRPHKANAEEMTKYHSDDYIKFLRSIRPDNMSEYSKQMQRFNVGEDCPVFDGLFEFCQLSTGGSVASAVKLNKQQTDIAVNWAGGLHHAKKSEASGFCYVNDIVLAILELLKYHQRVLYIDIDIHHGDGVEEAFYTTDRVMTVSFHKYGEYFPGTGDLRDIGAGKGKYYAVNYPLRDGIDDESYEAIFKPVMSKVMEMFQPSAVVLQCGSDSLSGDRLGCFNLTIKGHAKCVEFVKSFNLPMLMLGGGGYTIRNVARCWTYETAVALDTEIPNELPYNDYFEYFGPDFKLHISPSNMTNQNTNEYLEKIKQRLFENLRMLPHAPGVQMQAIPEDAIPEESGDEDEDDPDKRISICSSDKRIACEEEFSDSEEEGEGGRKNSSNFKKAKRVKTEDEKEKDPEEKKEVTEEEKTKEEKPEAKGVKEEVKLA
Protocol: as §3

THP-1 cells = assay: Cell viability assay (resazurin), THP-1; format: cell-based; details: Homo sapiens, THP-1, 72 h; read-out: IC50 anti-proliferative activity THP-1
Protocol: as §1, §2

[2] = tested on: MV4-11, THP-1, HL60 and Kasumi-1 cells; assay: Cell viability assay, four AML cell lines together; format: cell-based; details: synthesized SCA
Protocol: as §1, §2

MV4-11 cells [3] = assay: Microdilution checkerboard assay, 25c combined with Venetoclax; format: cell-based; details: Homo sapiens, 72 h, read-out: Inhibition Rate (%)
Protocol: The inhibition effect of 25c combined with Venetoclax on the proliferation of MV4-11 cells was determined by microdilution checkerboard assay. CompuSyn software was used to calculate the combined action index of the two compounds, and the cell inhibition rates of the two compounds acting alone and the combined action were input to calculate the combination index (CI) to evaluate the synergistic effect of the drugs. A CI value less than 1 indicates a synergistic effect, a CI value equal to 1 indicates an additive effect and a CI value greater than 1 indicates an antagonistic effect.

MV4-11 cells [4] = assay: Western blot analysis; format: cell-based; details: Venetoclax monotherapy, 24 h
Protocol: MV4-11 cells were inoculated into 12-well plates at a density of 800,000 cells/mL. After incubation overnight, each well was treated with different concentrations of 25c and Venetoclax alone or in combination. After treatment for 24 h, the cells were collected and washed with pre-cooled PBS. A protease inhibitor (cocktail) and RIPA buffer were added for cell lysis. The decomposed solution was centrifuged at 12,000 rpm for 15 min at 4 °C, and the extracted protein was located in the supernatant. The proteins in each sample were denatured by heating at 100 °C in loading buffer (5×) for 10 min. The same amount of proteins in each sample was separated by SDS-PAGE and then electrotransferred to a PVDF membrane (Merck Millipore, Billerica, MA, USA) and enclosed in 5% skim milk powder for 1 h. The primary antibody diluted with an immune response booster solution was incubated in a shaking bed at 4 °C overnight, and the horseradish (HRP)-conjugated second antibody diluted with 5% skim milk powder was incubated at room temperature for 1 h on the second day. After the PVDF membrane was washed with TBST, the target protein bands could be detected with chemiluminescent reagents (Millipore, Billerica, MA, USA) and visualized in the Tanon 5200 + fluorescence imager.
The primary antibodies Caspase 3 (including Cleaved Caspase-3) (sc-56053), Mcl-1 (94296S), Bcl-xL (ab98143), γ-H2AX (9718S), AcHH3 (Lys27) (8173S), AcHH4 (sc-377520), HH3 (ab1791), Ac-tubulin (sc-23950), HDAC6 (sc-28386), α-tubulin (sc-23948), GAPDH (sc-59540) and β-actin (8H10D10) were purchased from Abcam, Cell Signaling Technology and Santa Cruz Biotechnology.

SMILES	IC50 (MV4-11 cells [1])	IC50 (HDAC3)	inhibition at 0.01 µM (HDAC3)	inhibition at 0.1 µM (HDAC3)	IC50 (Kasumi-1 cells)	IC50 (HDAC2)	IC50 (HL-60 cells)	IC50 (HDAC1)	inhibition at 0.01 µM (HDAC1)	inhibition at 0.1 µM (HDAC1)	IC50 (THP-1 cells)	anti-proliferative inhibitory activity in four AML cell lines [2]	enzyme inhibitory activity, HDAC3 (HDAC3; screening at 100 nM and 10 nM)	enzyme inhibitory activity, HDAC1 (HDAC1; screening at 100 nM and 10 nM)	inhibition at 0.04 µM (MV4-11 cells [3]; Venetoclax 0.04 μM alone)	inhibition at 0.08 µM (MV4-11 cells [3]; Venetoclax 0.08 μM alone)	inhibition at 0.15 µM (MV4-11 cells [3]; Venetoclax 0.15 μM alone)	level of cleaved-caspase3 (MV4-11 cells [4])
CCCNNC(=O)C=Cc1ccc(CNCc2ccccc2)cc1 [Compound 25b, 3-(4-((Benzylamino)methyl)phenyl)-N′-propylacrylohydrazide]	362 ± 76.8 nM	2.7 ± 0.6 nM	94.8 ± 0.1%	97.9 ± 0.2%	448 ± 122 nM	111 ± 16.9 nM	736 ± 24.8 nM	27 ± 2 nM	21.8 ± 1.6%	77 ± 0.3%	516 ± 145 nM							
CCCNNC(=O)C=Cc1ccc(CNC2Cc3ccccc3C2)cc1 [Compound 25e, 3-(4-(((2,3-Dihydro-1H-inden-2-yl)amino)methyl)phenyl)-N′-propylacrylohydrazide]	353 ± 119 nM	3.1 ± 1.5 nM	94.8 ± 0.5%	95.6 ± 0.2%	380 ± 147 nM	161 ± 29 nM	502 ± 189 nM	36.5 ± 5 nM	10.9 ± 1.2%	78.7 ± 0.7%	451 ± 73.8 nM							
CCCNNC(=O)C=Cc1ccc(CNCc2cccc3ccccc23)cc1 [Compound 25g, 3-(4-(((Naphthalen-1-ylmethyl)amino)methyl)phenyl)-N′-propylacrylohydrazide]	582 ± 240 nM		45.9%	71.1 ± 1.6%	1010 ± 643 nM	46.3 ± 4.1 nM	650 ± 247 nM	16 ± 1 nM	33.9%	76.5 ± 5%	1020 ± 498 nM							
Nc1ccccc1NC(=O)c1ccc(CNC(=O)OCc2cccnc2)cc1 [Entinostat, reference compound]	651 ± 37.4 nM				480 ± 161 nM		1100 ± 51.5 nM		3.8 ± 1.1%	37.6 ± 2.6%	1520 ± 218 nM							
CCOC(=O)NCCCC(=O)NCCc1ccccc1 [SCA, Santacruzamate A]	> 10000 nM				> 10000 nM		> 10000 nM				> 10000 nM	no inhibitory activity was detected	no activity	no activity				
CC1(C)CCC(CN2CCN(c3ccc(C(=O)NS(=O)(=O)c4ccc(NCC5CCOCC5)c([N+](=O)[O-])c4)c(Oc4cnc5[nH]ccc5c4)c3)CC2)=C(c2ccc(Cl)cc2)C1 [Venetoclax]															36.5%	62.3%	78.5%	slightly higher
